Series [1] deals with at least one of JNK 3 or JNK 2 and at least one of PDE 10 or PDE 4. Briefly: Dual inhibition (phosphodiesterase and JNK). In kind it is biochemical, human. Conditions: IC50 JNK 3 or JNK 2 less than about 5.00 μM and PDE 10 or PDE 4 less than about 20.0 or 30.0 μM. The procedure, abridged:
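JNK2/JNK3: full-length human enzyme with 3 uM ATF2 and 10 uM ATP for 1 h, ATP depletion by luciferase luminescence. PDE4B catalytic domain with 5 uM cAMP, or PDE10A1 with 1 uM cAMP, 1 h; AMP converted to ATP for luminescence. Compounds 0–30 uM; IC50 by nonlinear regression.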

The subject of series [2] is phosphorylated c-Jun (serine-73). Briefly: Phosphorylated c-JUN (A-beta), SH-SY5Y. In kind it is cell-based. Conditions: Homo sapiens. As for the experimental part: In 96-well plates either human SH-SY5Y neuroblastoma cells at 2.5×10^4 cells/well or E18 rat neuronal cells at 1.5×10^4 cells/well were seeded. […] Supernatant was discarded and cells were fixed with 4% paraformaldehyde (100 ul/well) for 20 minutes. FACE cell based ELISA assay (Active Motif) was performed specific for quantifying phosphorlyated c-Jun (serine-73).

The next series has as its system Male Wistar rats. Briefly: Morris Maze test. In kind it is in vivo, rat. The source says:
The potential cognitive enhancing properties of the exemplary compound, AV1137, were examined in the Morris Maze test in the rat.
Male Wistar rats were given 4 training sessions over 4 consecutive days. The training session consisted of 4 consecutive trials in the Morris Maze, each separated by 60 seconds. For each trial, the animal was placed in the maze at one of two starting points equidistant from the escape platform and allowed to find the escape platform. The animal was left on the escape platform for 60 seconds before starting a new trial. […] During the 4 trials the animals started the maze twice from each starting point in a randomly determined order per animal.
The trials were video-recorded and the behaviour of animals was analysed using a video-tracking system (Panlab: SMART). The measures taken were the escape latency, the path length and the swim speed at each trial. Scopolamine (0.5 mg/kg i.p.), administered 30 minutes before each session, induces amnesia as indicated by the failure of scopolamine-treated rats to reduce their escape latencies from trial to trial. 12 rats were studied per group. […]
AV1137 was evaluated at 2 and 5 mg/kg, administered twice daily. […]
AV1137 was also administered at the end of each acquisition day (i.e. 6-8 hours after the first administration). […] Data were analyzed by comparing treated groups with appropriate control using unpaired Student's t tests.

Series [3] concerns phosphorylated c-Jun (serine-73). Briefly: Phosphorylated c-JUN (A-beta), E18 rat neuronal cells. Conditions: Amyloid Beta peptide 30 uM, 3 hours, read-out: p-cJun Abeta E18 (EC50 in μM). In kind it is cell-based. How it is done: In 96-well plates either human SH-SY5Y neuroblastoma cells at 2.5×10^4 cells/well or E18 rat neuronal cells at 1.5×10^4 cells/well were seeded. To each well the following was added, Amyloid Beta peptide 1-25 (source) at a concentration of 30 uM, retinoic acid (10 uM) and test compounds (0-30 uM) and incubated for 3 hours. Supernatant was discarded and cells were fixed with 4% paraformaldehyde (100 ul/well) for 20 minutes. FACE cell based ELISA assay (Active Motif) was performed specific for quantifying phosphorlyated c-Jun (serine-73).

Series [4] is described as follows: Oral pharmacokinetic evaluation. In kind it is in vivo, rat. The settings on record: Sprague-Dawley rats; for half-life / AUC(0-t) / Cmax: male, rat, plasma; for half-life: Sprague-Dawley, po, 15 mg/kg; for AUC(0-t): read-out: Oral PK AUClast; for Cmax: read-out: Oral PK Cmax. How it is done: Three male Sprague-Dawley rats were dosed orally via gavage with 15 mg/kg of test compound. Serial blood samples were collected from the jugular vein at 5, 15, and 30 min, 1, 3, and 6 hours post dosing. Samples were processed for plasma via centrifugation and plasma samples were stored frozen prior to analysis via a sensitive and specific HPLC/MS/MS method. PK parameters were calculated using WinNonLin (Pharsight).

Where [5] appears, read: Amyloid Beta peptide 30 uM, 3 hours, read-out: p-cJun Abeta SH-SY5Y (EC50 in μM).
Setting [6] is: 15 mg/kg oral gavage, read-out: Oral PK T½ (converted).
The mark [7] stands for this setting: read-out: p-cJun SH-SY5Y (EC50 in μM), no Abeta.

Read-outs that look alike come from different tables or passages of the source.

The results in this text go back to patent US20110039873A1, “SUBSTITUTED PYRAZOLO[1,5-a] PYRIDINE COMPOUNDS HAVING MULTI-TARGET ACTIVITY” (priority 2009, published 2011).

By EC50 is commonly meant the concentration at which the effect is half-maximal. By Cmax is commonly meant the highest concentration seen after dosing.

As to `CC(C)Nc1nccc(-c2c(C(C)C)nn3ccccc23)n1` [AV1137, N-isopropyl-4-(2-isopropylpyrazolo[1,5-a]pyridin-3-yl)pyrimidin-2-amine], the “dual inhibition (phosphodiesterase and JNK)” value (“dual inhibition” for short) in series [1] was “effective dual inhibitors”. Further, the EC50 in series [2] (setting [5]) is greater than 30 µM; in series [3] it was 3 µM. The escape latencies result in the series on Male Wistar rats (normal rats (no scopolamine), 5 mg/kg i.p., relative to saline controls, FIG. 5) is listed as “trend for reduced escape latencies”. Moreover, in the series with Male Wistar rats (scopolamine-induced deficit, 2 and 5 mg/kg i.p. twice daily, relative to scopolamine treated controls, FIG. 4), the “escape latency and distance swum” value was “trend was seen for decreased escape latency and distance swum”. Further, in series [4] (setting [6]), the half-life was 1.2 h. In addition, the AUC(0-t) in series [4] (15 mg/kg oral gavage) was determined as 52 ng·h/mL. Moreover, the Cmax in series [4] (15 mg/kg oral gavage) turned out to be 26 ng/mL.

For `CC(C)Nc1nccc(-c2cnn3ccccc23)n1` [AV1164, N-isopropyl-4-(pyrazolo[1,5-a]pyridin-3-yl)pyrimidin-2-amine], the “dual inhibition” value in series [1] is “effective dual inhibitors”. The EC50 was found to be 2.9 µM in series [2] (setting [5]), 1.1 µM in series [2] (setting [7]) and 1.4 µM in series [3]. For the same molecule, in series [4] (15 mg/kg oral gavage), the AUC(0-t) is 12 ng·h/mL. Besides, in series [4] (15 mg/kg oral gavage), the Cmax was determined as 17 ng/mL.

As for `c1ccn2ncc(-c3ccnc(NC4CCCC4)n3)c2c1` [AV1165, N-cyclopentyl-4-(pyrazolo[1,5-a]pyridin-3-yl)pyrimidin-2-amine], in series [1], the “dual inhibition” value is on record as “effective dual inhibitors”. Also, the values for the EC50 in series [2] (setting [7]) and in series [3] were 7.6 µM and 15 µM, respectively. For the same molecule, the AUC(0-t) in series [4] (15 mg/kg oral gavage) was less than 5 ng·h/mL.

As to `CC(C)Nc1nccc(-c2c(C3CC3)nn3ccccc23)n1` [AV1173, 4-(2-cyclopropylpyrazolo[1,5-a]pyridin-3-yl)-N-isopropylpyrimidin-2-amine], in series [1], the “dual inhibition” value is given as “effective dual inhibitors”. Moreover, in series [4] (oral), the “half life following oral dosing (in words)” value is recorded as “particularly prolonged half lives”. Further, the half-life in series [4] (setting [6]) is 9.4 h. The half-life in series [4] (oral, read-out: half life following oral dosing) is greater than 3 h. Also, in series [4] (15 mg/kg oral gavage), the AUC(0-t) came out at 462 ng·h/mL and the Cmax was found to be 122 ng/mL.
